Laboratory results from patent US5045566A, “Novel imidate insecticides” (ICI Americas Inc., priority 1989, dated 1991).

What was measured:
Assay type in all cases: in vivo
[1] = system: Cabbage Looper [Trichoplusia ni (Hubner)]; assay: Cabbage looper leaf dip (CL), 3-5 days; details: percent in solution, second-instar larvae
Method in brief: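 Steps: dilute compound in 50-50 acetone-water from 0.1% downward; immerse cotyledon pieces 2-3 s and dry; place in humid petri dishes with five second-instar larvae; record mortality at 3-5 days. Dosage-mortality curves yield LC50 as percent in solution.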

[2] = system: Tobacco Budworm [Heliothis virescens (Fabricius)] eggs; assay: Tobacco budworm eggs (TBW-E); details: percent in solution; 2-day old eggs
Method in brief: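 Mortality of dipped eggs served as read-out, recorded after untreated controls hatched and began feeding. Treatments used acetone solutions from 0.1% downward, with eggs incubated at 78° F; LC50 is expressed as percent of compound in the solution.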

[3] = system: Tobacco Budworm [Heliothis virescens (Fabricius)] larvae; assay: Tobacco budworm larvae, contact (TBW-C), 5 days; details: percent in solution, second-instar larvae
Method in brief: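 Cotton cotyledons dipped 2–3 s in compound in 50-50 acetone-water, dried, then infested with 5 second-instar larvae and held 5 days at high humidity. Mortality scored; LC50 from dosage-mortality curves, expressed as percent compound in solution, concentrations from 0.1% downward.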

[4] = system: Beet Armyworm (Spodoptera exigua); assay: Beet armyworm leaf dip (BAW), 5 days; details: percent in solution; second-instar larvae; five days
Method in brief: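 Five second-instar larvae per dish fed on dried sugar beet leaves previously dipped 2–3 s in acetone-water (1:1) test solutions up to 0.1%. Kept at high humidity, with deaths counted after five days; LC50 as % in solution via dosage-mortality curves.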

[5] = system: Housefly [Musca domestica]; assay: Housefly contact mortality in dishes (HF), 48 hours; details: μg of test compound per 25 female flies
Method in brief: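 LC50 (μg compound per 25 female flies) derives from dosage-mortality curves of 48 h kill. Flies, females 1-2 days old, were held 25 per cage over a dish coated with dried acetone deposit, starting at 100 μg per cage and descending.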

[6] = system: Black Bean Aphid [Aphis fabae (Scop.)]; assay: Black bean aphid spray test on nasturtium (BBA), 48 hours; details: percent of test compound in sprayed solution
Method in brief: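 LC50, given as percent test compound in the sprayed liquid, was calculated from dosage-mortality curves using concentrations from 0.05% downward. Sprays in 50:50 acetone-water went to runoff on ~5 cm nasturtiums carrying 25-50 aphids of mixed ages, one day after infestation. Deaths were counted 48 h later under greenhouse conditions.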

[7] = system: Rice water weevil [Lissorhoptrus oryzophilus (Kuschel)]; assay: Rice water weevil topical (RWW), 48 hours; details: μg of test compound per weevil, female adults
Procedure: The compounds in Tables 1 and 2 above were tested for insecticidal activity using the following testing procedures. LC50 values, based on the results of these tests and calculated according to dosage-mortality curves, are expressed in Table 3.
Rice water weevil [Lissorhoptrus oryzophilus (Kuschel)]:
Test compounds were diluted in acetone. Droplets (1 ul) of test solutions were applied to the ventral abdomens of ten female adult weevils. The treated weevils were placed in containers with wet cotton balls and rice foliage. The containers were covered and kept at a temperature of about 25° C. Mortality was recorded after 48 hours. Test concentrations ranged from […] down to that at which 50% mortality occurred. The LC50 values are expressed below in Table 3 under the heading "RWW" in terms of μg of test compound per weevil.

[8] = system: Aster Leafhopper [Macrosteles fascifrens (Stal)]; assay: Aster leafhopper on dipped oat seedlings (LH), 48 hours; details: percent in solution, adults/nymphs
Method in brief: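 LC50 values, given as percent of test compound in the dip solution, were derived from dosage-mortality curves over concentrations from 0.05% downward. Mortality was counted 48 hours after ten leafhopper adults/nymphs were enclosed on treated seedlings. The seedlings were oats, about 10 cm tall, briefly dipped in 50-50 acetone-water.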

[9] = system: Maize weevil [Sitophilus zeamais (Motschulsky)]; assay: Maize weevil on dipped corn seeds (MW), 48 hours; details: percent in solution, adult weevils
Method in brief: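 LC50, given as percent of compound in dipping solution, comes from dosage-mortality curves over concentrations descending from 0.01%. Four corn seeds soaked 2-3 s in 50:50 acetone:water solution were dried and held with 10 adult weevils, about 25° C, mortality read after 48 h.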

SMILES	LC50 CL [1] [%]	LC50 TBW E (eggs) [2] [%]	LC50 TBW C (contact) [3] [%]	LC50 BAW [4] [%]	LC50 HF [5] [µg]	LC50 BBA [6] [%]	LC50 RWW [7] [µg]	LC50 LH [8] [%]	LC50 MW [9] [%]
CC(C)C(=Nc1cc(F)cc(F)c1)OCc1cccc(Oc2ccccc2)c1 [Compound 55]	0.0017	0.06	0.004	0.006	> 100	0.003	> 2.5	0.0005	
FC(F)(F)c1cccc(N=C(OCc2cccc(Oc3ccccc3)c2)C(Cl)Cl)c1 [Compound 66, N-(3-Trifluoromethylphenyl)-O-(3-phenoxybenzyl)dichloroacetimidate]	< 0.0025	0.06		0.0065	9.7	0.0003	> 2.5	0.001	
CC(C)C(=Nc1ccc(F)c(Cl)c1)OCc1cccc(Oc2ccccc2)c1 [Compound 81, N-(3-Chloro-4-fluorophenyl)-O-(3-phenoxybenzyl)isobutyrylimidate]	0.0006	0.007	0.0009	0.003	4	0.001	> 0.5	0.0003	0.005
CC(C)C(=Nc1ccc(F)c(Cl)c1)OCc1ccc(F)c(Oc2ccccc2)c1 [Compound 82]	0.00018	0.006	0.0008	0.0025	2.5	0.00021	0.086	0.0001	
CC(C)C(=Nc1ccc2c(c1)OCO2)OCc1ccc(F)c(Oc2ccccc2)c1 [Compound 181]	0.0005	0.01	0.001	0.001	25		> 2.5		0.005
CC(C)C(=Nc1ccc2c(c1)OC(F)(F)O2)OCc1cccc(Oc2ccc(F)cc2)c1 [Compound 244]	0.00004	> 0.1	0.00025	0.002	14	0.0006	0.09		0.0025
CC(C)C(=Nc1ccc2c(c1)OC(F)(F)O2)OCc1cccc(Oc2ccccc2)c1 [Compound 245]	0.0035	0.016	0.0015	0.001	20	0.0003	> 2.5		0.006
CC(C)C(=Nc1ccc(F)c(I)c1)OCc1ccc(F)c(Oc2ccc(F)cc2)c1 [Compound 281]	0.00002	0.006	0.00025	0.0027	5	0.0003	> 2.5		0.005
CC(C)C(=Nc1ccc2c(c1)OC(F)(F)O2)OCc1ccc(F)c(Oc2ccccc2)c1 [Compound 285]	0.000075	0.005	0.00017	0.0006	36		0.13		0.005
CC(C)C(=Nc1ccc(C(F)(F)F)cc1)OCc1ccc(F)c(Oc2ccc(Cl)cc2)c1 [Compound 324]	0.00014	0.025	0.0004	0.0024	> 100	0.0003	0.06		
CC(C)C(=Nc1ccc(F)cc1)OCc1ccc(F)c(Oc2ccc(Cl)cc2)c1 [Compound 325]	0.00012	0.037	0.0006	0.0025	5	0.0001	> 2.5		
CC(C)C(=Nc1ccc(F)c(Cl)c1F)OCc1cccc(Oc2ccc(Cl)cc2)c1 [Compound 331]	0.0002	0.04	0.0004	0.002	20	> 0.05	> 2.5		
CC(C)C(=Nc1ccc(F)c(F)c1)OCc1ccc(F)c(Oc2ccccc2)c1 [Compound 336]	0.00017	0.02	0.0005	0.001	3.6	0.0003	> 2.5		0.0091
CC(C)C(=Nc1ccc(C(F)(F)F)cc1)OCc1ccc(F)c(Oc2ccccc2)c1 [Compound 337]	0.0007	0.008	0.0005	0.0005	21	0.0003	0.067		0.0053
CC(C)C(=Nc1ccc(F)c(F)c1F)OCc1ccc(F)c(Oc2ccc(F)cc2)c1 [Compound 349]	0.00007	> 0.1	0.0004	> 0.1	4.9	> 0.05	> 2.5		> 0.01
CC(C)C(=Nc1ccc(F)c(Cl)c1)OCc1cccc(Oc2ccc(F)cc2)n1 [Compound 461]	0.00008	0.01		0.0035	6	0.001	> 2.5		0.0075
